Tested on: immobilized GST-tagged bait protein domains
Experiment: ProP-PD phage selections (HD2 P8, sublibraries, HD2 P3, HD1 P8) with NGS and confidence level
Format: binding, human
Conditions: for p3_HD2 confidence / p3_HD2 mean counts / p3_HD2 count proportions: HD2 P3 library; for HD confidence / HD mean counts / HD count proportions: HD1 P8 library
[1] = bait CRK_SH3_1_P46108_124_198, confidence level (4 = High, 2-3 = Medium, 1 = Low)
[2] = bait CRK_SH3_1_P46108_124_198, mean NGS counts over replicate selections
[3] = bait CRK_SH3_1_P46108_124_198, mean proportion of NGS counts
[4] = library HD2, bait EPS15_EH__P42566_121_215, whether the validated benchmark motif instance was recovered in the ProP-PD selection (TRUE/FALSE)
[5] = library HD2, bait VASP_EVH1__P50552_1_114, validated benchmark motif instance, in_library_check TRUE, TRUE/FALSE = instance recovered in ProP-PD selection
[6] = HD2 library, bait TLN1_PTB__Q9Y490_309_401, known motif instance of the benchmarking set found (TRUE) or not found (FALSE) among selected peptides
[7] = HD2 library, bait CALM1_EF-hand__P0DP23_2_149, benchmark motif instance, in_library_check FALSE, in_library_coverage 0
[8] = HD2 library, bait TNKS_TANK-peptide-bind__O95271_174_649, known motif instance of the benchmarking set found (TRUE) or not found (FALSE) among selected peptides
[9] = bait CALM1_EF-hand__P0DP23_2_149, library HD2, benchmarking set of validated motif instances, TRUE = motif instance recovered in the ProP-PD selection
[10] = bait KPNA4_Arm (O00629 68-487), HD2 library, benchmark motif instance recovered in the ProP-PD selection (TRUE/FALSE)
[11] = bait MAP1LC3A_ATG8 (Q9H492 2-121), HD2 library, benchmark motif instance recovered in the ProP-PD selection (TRUE/FALSE)
[12] = bait PABP-B_PABP__P11940_544_623, HD2 library, whether the validated benchmark motif instance was recovered in the ProP-PD selection (TRUE/FALSE)
[13] = bait PABP-B_PABP__P11940_544_623, HD2 library, confidence level (1-4) of best matching selected peptide
[14] = bait PABP-B_PABP__P11940_544_623, HD2 library, specificity score of best matching selected peptide
[15] = bait CRK_SH3_1_P46108_124_198, library HD2, benchmarking set of validated motif instances, TRUE = motif instance recovered in the ProP-PD selection
[16] = bait MAP1LC3B_ATG8 (Q9GZQ8 2-119), HD2 library, benchmark motif instance recovered in the ProP-PD selection (TRUE/FALSE)

QQVPAPPLPAKKNLPT gave a p3_HD2 confidence [1] of 4, a p3_HD2 mean counts [2] of 120.7 and a p3_HD2 count proportions [3] of 0.00436.

For QRTNPSPTNPFSSDLQKTF, the motif_found [4] was “FALSE”.

For QSGSGGIFPPPPDDDIYDG, the motif_found [5] was “FALSE”.

For QSKPLVDIDLISFDDD, the HD2_nc confidence (bait CLTC_Clathrin-propeller__Q00610_1_364, HD2 P8 nucleocytoplasmic sublibrary, confidence level (4 = High, 2-3 = Medium, 1 = Low)) was 4, the HD2_nc mean counts (bait CLTC_Clathrin-propeller__Q00610_1_364, HD2 P8 nucleocytoplasmic sublibrary, mean NGS counts over replicate selections) was 25.67 and the HD2_nc count proportions (bait CLTC_Clathrin-propeller__Q00610_1_364, HD2 P8 nucleocytoplasmic sublibrary, mean proportion of NGS counts) was 0.0005729.

With RARAKWDTANNPLYKEATSTFT the motif_found [6] was “FALSE”.

In the case of RCTSPGGSYGHLSIGTMSPSLG, the motif_found (bait SUFU_SUFU__Q9UMX1_1_484, HD2 library, whether the validated benchmark motif instance was recovered in the ProP-PD selection (TRUE/FALSE)) is reported as “FALSE”.

With RCVNSRQIRPPPDGSDCTSDLA [RAD54L 690-697] the motif_found (HD2 library, bait TNKS_TANK-peptide-bind__O95271_174_649, benchmark motif instance, in_library_check FALSE, in_library_coverage 0) was “FALSE”.

RDAEAHPWLSDYDDLTSAT was tested, and the motif_found (bait PEX14_Pex14__O75381_16_84, HD2 library, whether the validated benchmark motif instance was recovered in the ProP-PD selection (TRUE/FALSE)) was “FALSE”.

In the case of “REMEEKSALIIQKHWRGYRERKNFHQQRQSL [IQCB1 391-407]”, the motif_found [7] is reported as “FALSE”.

RGRGDGQE was tested, and the motif_found [8] was “FALSE”.

RHLPPPLPSKTPPPPP showed a p3_HD2 confidence [1] of 3, a p3_HD2 mean counts [2] of 27.0 and a p3_HD2 count proportions [3] of 0.0009618.

For “RKKWKQSVRLISLCQRLSR,KWKQSVRLISLCQRLS [DAPK1]”, the motif_found [9] was “FALSE”.

With RKNTKSMNFDNPVYRKTTEEED [LRP8 860-867] the motif_found (HD2 library, bait TLN1_PTB__Q9Y490_309_401, benchmark motif instance, in_library_check FALSE, in_library_coverage 0) was “FALSE”.

In the case of “RKQEEVSAIIIQRAYRRYLLKQKVKKVSSIY [SCN2A 1909-1925]”, the motif_found [7] is reported as “FALSE”.

For “RKQYRKVLYCVVIIQKNYRAFLLRRRFLHLKKAA [MYO10 766-785]”, the motif_found [7] was “FALSE”.

In the case of RKRAKV, the motif_found [10] is reported as “FALSE”.

With RKTLVSMPPLPGLDLKGSESPE [RFX5] the motif_found (bait ANKRA2_Ank__Q9H9E1_142_313, library HD2, benchmarking set of validated motif instances, TRUE = motif instance recovered in the ProP-PD selection) was “FALSE”.

In the case of RLRHALWPSLPDLHRVLGQYLRDT, the motif_found (library HD2, bait ANKRA2_Ank__Q9H9E1_142_313, motif instance NOT in library (in_library_check FALSE, in_library_coverage 0)) is reported as “FALSE”.

For RMATAEDLPLPPPPALEDL, the motif_found [5] was “FALSE”.

In the case of RMSQIKRLLSE, the motif_found (bait PTK2_Focal-AT__Q05397_891_1050, HD2 library, whether the validated benchmark motif instance was recovered in the ProP-PD selection (TRUE/FALSE)) is reported as “FALSE”.

In the case of RPPDDAVFDIITDEELCQIQ, the motif_found [11] is reported as “FALSE”.

RRKWQKTGNAVRAIGRLSSM [MYLK] was tested, and the motif_found [9] was “FALSE”.

RRMPAANLIQAAWRLYSTD [KCNQ4 338-356] was tested, and the motif_found [7] was “FALSE”.

“RRRFLHLKKAAIVFQKQLRGQIARRVYRQLLAEK [MYO10 789-808]” was tested, and the motif_found [7] was “FALSE”.

RRRWKLSFSIVSLCNHLTR [DAPK2] was tested, and the motif_found [9] was “FALSE”.

With RSEIGHSPPPAYTPMS the motif_found (bait NEDD4_WW_4 (P46934 890-928), HD2 library, benchmark motif instance recovered in the ProP-PD selection (TRUE/FALSE)) was “TRUE”, the best_confidence (bait NEDD4_WW_4 (P46934 890-928), HD2 library, confidence level (1-4) of best matching peptide) was 2 and the best_specificity (bait NEDD4_WW_4 (P46934 890-928), HD2 library, specificity score of best matching peptide) was 1.

RVTENNLQTPNPTASEFIPKGGSTSRL was tested, and the motif_found [12] was “FALSE”.

In the case of SAEPRPRTRSNPEGAEDRAVGA, the motif_found [8] is reported as “FALSE”.

With SALSPNAKEFIFPNMQ the best_confidence [13] was 3, the best_specificity [14] was 1 and the motif_found [12] was “TRUE”.

For SARILKEYNPFEEEDEEEE, the motif_found [4] was “FALSE”.

For SASYPPYQATGPPNTSYMPGMPGGI [TSG101], the motif_found (bait CEP55_EABR__Q53EZ4_160_217, library HD2, benchmarking set of validated motif instances, TRUE = motif instance recovered in the ProP-PD selection) was “FALSE”.

In the case of SDLFPAPPQIPSRPVRIPPG [DNM2], the motif_found [15] is reported as “FALSE”.

In the case of SDRTAAPGNPFRAKSEESE, the motif_found [4] is reported as “FALSE”.

With SEEGDNESRSAGDGTDWEKEDQ the motif_found [8] was “FALSE”.

SETMSMPQLTVPASGS showed an HD2 confidence (bait ANKRA2_Ank__Q9H9E1_142_313, library HD2 P8) of 4.

With SFGGGFADF [EPS15] the motif_found (bait AP2B1_adaptin__P63010_700_937, library HD2, benchmarking set of validated motif instances, TRUE = motif instance recovered in the ProP-PD selection) was “TRUE”.

In the case of “SFLSRRAARTIQTAFRQYRMNKNFERLRSSA [IQSEC2]”, the motif_found [9] is reported as “FALSE”.

For SFNPDAQVFVPIGSQD, the best_confidence [13] was 3, the best_specificity [14] was 1 and the motif_found [12] was “TRUE”.

In the case of SGETQTTSPAIPWAAF, the HD confidence (bait AP2B1_adaptin__P63010_700_937, confidence level (4 = High, 2-3 = Medium, 1 = Low)) is reported as 4, the HD mean counts (bait AP2B1_adaptin__P63010_700_937, mean NGS counts over replicate selections) is reported as 10.25 and the HD count proportions (bait AP2B1_adaptin__P63010_700_937, mean proportion of NGS counts) is reported as 0.003472.

For SGGSDEAPPKPSRPGYPSPR [PTK2], the motif_found [15] was “FALSE”.

With SHLGTYGVFTNAAFDPSP---- the motif_found [6] was “FALSE”.

SIDAHTFDFETIPHPNIEQ was tested, and the motif_found [11] was “FALSE” and the motif_found [16] was “FALSE”.

In the case of SILEQTDMEAVEALVCMSSWGQRS, the motif_found (bait SIN3A_PAH__Q96ST3_295_383, HD2 library, whether the validated benchmark motif instance was recovered in the ProP-PD selection (TRUE/FALSE)) is reported as “FALSE”.

In the case of SKSSNASWPPEFQPGVPWKGIQNIDPES, the motif_found [12] is reported as “FALSE”.

SKYITTIAGVMTLS was tested, and the motif_found (library HD2, bait CALM1_EF-hand__P0DP23_2_149, motif instance NOT in library (in_library_check FALSE, in_library_coverage 0)) was “FALSE”.

With “SLEQSERRRRLLELQKSKRLDYVNHARRLA,ERRRRLLELQKSKRLDYVNHARR,PRLSQYKSKYSSLEQSERRRRLLELQKSKRLDYVNHARR,EQSERRRRLLELQKSKRLDYVNHARR (UniProt O95149 42-64, looked up, fragment) [SNUPN 42-64]” the motif_found (HD2 library, bait KPNB1_Heat_1_Q14974_1_485, benchmark motif instance, in_library_check FALSE, in_library_coverage 0) was “FALSE”.

SLMTDEPGLDNPAYVSSAEDGQ was tested, and the motif_found [6] was “FALSE”.

SLWTALSNFSMPSFPG showed an HD2-1mM_CaCl confidence (bait CALM1 EF-hand (P0DP23, 2-149), HD2 library selection with 1mM_CaCl, confidence level (4 = High, 2 or 3 = Medium, 1 = Low)) of 4 and an HD2 confidence (bait CALM1 EF-hand (P0DP23, 2-149), HD2 library selection, confidence level (4 = High, 2 or 3 = Medium, 1 = Low)) of 4.

SNGSSINWPPEFHPGVPWKGLQNIDPEN was tested, and the motif_found [12] was “FALSE”.

With SNPFMTGAPTGQFPTG the best_specificity (library HD2, bait EPS15_EH__P42566_121_215, best matching peptide) was 1, the best_confidence (library HD2, bait EPS15_EH__P42566_121_215, confidence level of best matching peptide (4 High, 2-3 Medium, 1 Low)) was 3 and the motif_found [4] was “TRUE”.

SNTNRFQVSVINENHE gave an HD2_cytoplasm confidence (bait OXSR1___O95747_434_527, HD2 P8 cytoplasm sublibrary, confidence level (4 = High, 2-3 = Medium, 1 = Low)) of 4.

SPALTAPPPAYATLGPRP was tested, and the motif_found (bait NEDD4_WW_4_P46934_890_928, HD2 library, whether the validated benchmark motif instance was recovered in the ProP-PD selection (TRUE/FALSE)) was “FALSE” and the motif_found (library HD2, bait YAP1_WW_1_P46937_169_207, validated benchmark motif instance, in_library_check TRUE, TRUE/FALSE = instance recovered in ProP-PD selection) was “FALSE”.

For SPANSFHFKEAWKHAIQKAKHMPDPWA [EEF2K], the motif_found [9] was “FALSE”.

Work on SPFLPDLNFFAADSCL yielded an HD2 confidence (bait ANKRA2_Ank__Q9H9E1_142_313, HD2 P8 selection, confidence level -4 to 4: 4 = High, 3 or 2 = Medium, 1 = Low, 0 = Filtered/Noise) of 2.

SPSLPNITLGLPATGP showed an HD confidence (bait ANKRA2_Ank__Q9H9E1_142_313, confidence level (4 = High, 2-3 = Medium, 1 = Low)) of 4, an HD mean counts (bait ANKRA2_Ank__Q9H9E1_142_313, mean NGS counts over replicate selections) of 701.75 and an HD count proportions (bait ANKRA2_Ank__Q9H9E1_142_313, mean proportion of NGS counts) of 0.06192.

In the case of SQKGNISETIVIDDEEDIETNGGA, the motif_found (HD2 library, bait SUMO1_SUMO__P63165_1_101, known motif instance of the benchmarking set found (TRUE) or not found (FALSE) among selected peptides) is reported as “FALSE”.

For SQPAGISTNPFMTGPSSSP, the motif_found [4] was “FALSE”.

For SQPVMRPPNPFGPVSGAQI, the motif_found [4] was “FALSE”.

In the case of SQRIQTNNNPFQVPIEEQR [RELA 138-142], the motif_found (HD2 library, bait EPS15_EH__P42566_121_215, benchmark motif instance, in_library_check FALSE, in_library_coverage 0) is reported as “FALSE”.

SQSSASSEDYIIILPECFDT was tested, and the motif_found [11] was “FALSE” and the motif_found [16] was “FALSE”.

In the case of SRHAQEPPAKRRKGSKGPEG-, the motif_found [10] is reported as “FALSE”.

— PMC8769072, “Proteome‐scale mapping of binding sites in the unstructured regions of the human proteome” (Molecular Systems Biology, 2022)
